This note sets out measurements from US8629144B2, “Polymorphic and hydrate forms, salts and process for preparing 6-{difluoro[6-(1-methyl-1H-pyrazol-4-yl)[1,2,4]triazolo[4,3-b]pyridazin-3-yl]methyl}quinoline” (Janssen Pharmaceutica NV, priority 2007, dated 2014).

The test system of one series is U87MG tumors. Description: U87MG glioblastoma tumour xenograft model. The class given is in vivo, athymic nude mice. The settings on record: for Decrease of mean tumor volume: Day 12, p<0.01. As for the experimental part:
The U87MG glioblastoma cell line (Piedmont Research Center LLC) expresses the c-Met receptor and responds to […] (HGF). This study investigated whether treatment with an inhibitor of c-Met is efficacious against the U87MG glioblastoma tumor xenograft model. This study utilized a tumor growth inhibition (TGI) assay to test per os (p.o.) compound monotherapy in groups of fifteen nude mice. A control group was treated with vehicle, 20% Hydroxypropyl Beta-Cyclodextrin (HPBCD). All treatments began on Day 1 (D1) in mice bearing established subcutaneous (s.c.) U87MG tumors.
Female athymic nude mice (Harlan) were 10-11 weeks old with a BW range of 18.1-25.0 g on D1 of the study. The animals were fed ad libitum water (reverse osmosis, 1 ppm Cl) and NIH 31 Modified and Irradiated Lab Diet® consisting of 18.0% crude protein, 5.0% crude fat, and 5.0% crude fiber. The mice were housed on irradiated ALPHA-Dri® bed-o-cobs® Laboratory Animal Bedding in static microisolators on a 12-hour light cycle at 21-22° C. (70-72° F.) and 40-60% humidity. All animals were housed in a Laboratory Animal Medicine facility that is fully accredited by the American Association for Assessment and Accreditation of Laboratory Animal Care (AAALAC). All procedures involving animals were conducted in compliance with the NIH Guide for the Care and Use of Laboratory Animals and all protocols were approved by an Internal Animal Care and Use Committee (IACUC).
Xenografts were initiated from U87MG human glioblastoma tumor fragments maintained by serial transplantation in athymic nude mice. Each test mouse received a subcutaneous U87MG tumor fragment (1 mm^3) implanted in the right flank, and the growth of tumors was monitored as the average size approached 200 mm^3. Twelve days later, on Day 1 of the study, the animals were sorted into 4 groups (n=12-15 mice/group) with individual tumor volumes ranging from 172-352 mm^3 and group mean tumor volumes of 216 mm^3. Tumor volume was calculated using the formula: […]
Dosing solutions of compounds of the present invention were prepared fresh weekly in a vehicle consisting of 20% Hydroxypropyl Beta-Cyclodextrin (HPBCD) in water. In all groups, the dosing volume of 0.2 mL/20-g mouse was scaled to the body weight of each animal. Doses were given to allow for the HCl salt form of the compound.
TGI was calculated from the difference between the median tumor volumes of vehicle-treated and drug-treated mice, expressed as a percentage of the median tumor volume of the vehicle-treated control group, by the following relation:
The MTV (n) is defined as the median tumor volume (MTV) for the number of animals, n, remaining in the study on that day.
Animals were weighed daily for the first five days of the study and then twice weekly. The mice were examined frequently for overt signs of any adverse, drug-related side effects, and clinical signs of toxicity were recorded when observed. Acceptable toxicity is defined as a group mean body-weight (BW) loss of less than 20% during the study, and not more than one treatment-related (TR) death among ten animals. A death is classified as TR if it is attributable to treatment side effects as evidenced by clinical signs and/or necropsy, or due to unknown causes during the dosing period or within 10 days of the last dose. A death is classified as non treatment-related (NTR) if there is no evidence that the death was related to drug side effects. […]

For the next series, the system named is S114 tumors. Description: S114 tumor model. Type of series: in vivo, athymic nude mice. The conditions noted are these: 100 mg/kg p.o. q.d., four consecutive days. The procedure: Female athymic nude mice (CD-1, nu/nu, 9-10 weeks old) were obtained from Charles River Laboratories (Wilmington, Mass.) and were maintained according to NIH standards. All mice were group housed (5 mice/cage) under clean-room conditions in sterile micro-isolator cages on a 12-hour light/dark cycle in a room maintained at 21-22° C. and 40-50% humidity. Mice were fed irradiated standard rodent diet and water ad libitum. All animals were housed in a Laboratory Animal Medicine facility that is fully accredited by the American Association for Assessment and Accreditation of Laboratory Animal Care (AAALAC). All procedures involving animals were conducted in compliance with the NIH Guide for the Care and Use of Laboratory Animals and all protocols were approved by an Internal Animal Care and Use Committee (IACUC).
The murine NIH 3T3 derived cell line S114, which has been engineered to over-express both […] (HGF) and the human c-Met receptor, was propagated in DMEM media (Life Technologies, Bethesda, Md.). Immediately prior to injection, cells were washed counted and resuspended in PBS. Female athymic nude mice weighing no less than 20-21 grams were inoculated subcutaneously in the left inguinal region of the thigh with 5×10^6 cells in a delivery volume of 0.1 mL. Tumors were allowed to grow to for five days.
Mice were dosed orally at 100 mg/kg compound in 20% HPBCD or with vehicle (20% HPBCD, control group). Dosing was continued for 4 consecutive days. Compounds of the invention were prepared fresh daily as a clear solution in 20% HPBCD and administered as described above. Body weight was measured at the end of the study and a loss of body weight >10% was used as an indication of lack of compound tolerability. Unacceptable toxicity was defined as body weight loss >20% during the study. Mice were closely examined daily at each dose for overt clinical signs of adverse, drug-related side effects.
On the day of study termination, a final tumor volume and final body weight were obtained on each animal. […]

In the next series the target is T1, c-Met kinase (Homo sapiens, UniProt P08581).
T1 construct: His-6 (N); purchased Panvera Lot 40047X; host or cells: Sf9 insect cells (baculovirus), for the His6-MetKin construct scaled up at Pan Vera
T1 sequence (P08581 956-1390 limits assumed): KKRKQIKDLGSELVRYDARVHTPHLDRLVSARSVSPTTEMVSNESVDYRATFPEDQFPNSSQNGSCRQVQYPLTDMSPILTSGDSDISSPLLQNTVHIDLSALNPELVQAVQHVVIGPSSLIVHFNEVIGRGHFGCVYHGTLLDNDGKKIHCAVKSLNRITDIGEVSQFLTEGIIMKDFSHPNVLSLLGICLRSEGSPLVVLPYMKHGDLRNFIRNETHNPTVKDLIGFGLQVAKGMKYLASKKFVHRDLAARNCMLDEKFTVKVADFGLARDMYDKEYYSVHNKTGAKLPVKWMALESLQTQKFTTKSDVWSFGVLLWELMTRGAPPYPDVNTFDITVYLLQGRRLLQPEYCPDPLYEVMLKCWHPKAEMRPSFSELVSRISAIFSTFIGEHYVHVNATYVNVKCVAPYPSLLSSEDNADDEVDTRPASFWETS
Description: c-Met autophosphorylation assay with radioactive ATP. Type of series: biochemical. The conditions noted are these: [33P]-γ-ATP, 60 min room temperature, read-out: IC50 for c-Met kinase inhibition. As for the experimental part: The present autophosphorylation assay uses radioactive ATP to measure the incorporation of phosphate upon c-Met autophosphorylation. The assay procedure for screening is as follows.
c-Met enzyme (purchased from Panvera, Lot 40047X, 2.4 mg/ml); “Assay buffer” (13.3 mM MOPS pH 7; 0.33 mM EDTA); “Enzyme buffer” (20 mM MOPS pH 7; 1 mM EDTA; 0.01% Brij 35; 5% glycerol; 0.1% beta mercapto-EtOH); 100 mM MgAc; 3% phosphoric acid; 75 mM phosphoric acid; 1 mM ATP-stock; [^33P]-γ-ATP (NEN, NEG602H); round-bottom 96-well plates (Corning, 3799); Filtermat P30-filters (Perkin Elmer); “Enzyme mix” (698.80 μl of Enzyme buffer as above+1.17 μl of c-Met enzyme as above); “Substrate mix” (946.00 μl of 100 mM MgAc+50.00 μl ATP (0.1 mM)+4.00 μl [^33P]-γ-ATP as above).
• 1. Distribute 15 μl assay buffer per well. • 2. Add 0.5 μl dilution of tested c-Met inhibitor (e.g., compound (I) or its forms or salts) in DMSO. • 3. Add 5 μl Enzyme mix per well (control: Enzyme buffer in blanc). • 4. Add 5 μl Substrate mix per well. • 5. Incubate at room temperature for 60 min. • 6. Stop reaction with 3% phosphoric acid, 5 μl per well • 7. Shake plate • 8. Spot 5 μl from a well to filtermat P30. • 9. […] Expose the filter to phosphor storage cassette overnight on low energy phosphor storage plate, and detect and quantify the signal using a suitable phosphorimager (herein, Typhoon) Results

The nature of series [1]: Water solubility of salts of compound (I). The settings on record: 24 hours at 20° C. The class given is physicochemical. The procedure: An excess of different salts of compound (I) was agitated with water during 24 hours at 20° C. Following filtration, the concentration of compound (I) in the solution was determined by UV spectrometry.
The nature of series [2]: Water adsorption (hygroscopicity) of salts of compound (I). Type of series: physicochemical. The procedure:
Free base of compound (I) (3 g; 7.95 mmol) was dissolved in absolute ethanol (40 mL) and heated to 78° C. An acid (HCl 6M in 2-propanol, 2.0 ml (12 mmol); HBr 48% in water, 0.98 mL (8.75 mmol); methane sulphonic acid, 917 mg (9.54 mmol); ethane sulphonic acid, 1.05 g (9.54 mmol) or p-toluene sulphonic acid monohydrate (1.66 g (8.75 mmol)) was added to the hot reaction mixture. The reaction mixture was allowed to cool to room temperature. The resulting precipitate was filtered off, washed with ethanol and dried under vacuum at 60° C.
The obtained solids were analysed by acid titration, Karl-Fisher titration and HPLC. A physical characterisation was performed (DSC, TGA, XRD and IR, DVS).

A short description of series [3]: Absorption and plasma kinetics after oral administration of salts to rat. The settings on record: male, SD, rat, plasma, po.
Description: Five male SD rats (225±11 g) were used per salt form. From each rat a complete plasma concentration time profile was obtained. Tap water and food were available ad libitum. The test involved salts of compound (I) with HBr, HCl, methanesulphonic acid (mesylate), ethanesulphonic acid (esylate) or p-toluenesulphonic acid (tosylate). The individual salts were dispersed in a 0.5% methocel suspension to a final concentration of 1 mg base eq./ml. The formulations were stored at room temperature.
Administration was oral by gastric intubation: 10 ml/kg to obtain a dose of 10 mg base eq./kg.
Blood samples were collected 30 min, 1, 2, 4, 7 and 24 h after dose administration.
Blood was collected by multiple sampling from a tail vein into Multivette® 600 K3E tubes (Sarstedt). Samples were placed immediately on melting ice and plasma was obtained following centrifugation at 4° C. for 10 minutes at approximately 1900×g. All samples were shielded from daylight and stored at ≦−18° C. prior to analysis.
A limited pharmacokinetic analysis was performed using WinNonlin™ Professional (Version 5.1). A non-compartmental analysis using the lin/log trapezoidal rule with lin/log interpolation was used for all data.

SMILES strings stand for the structures. Where “and” joins values, the source holds several entries; their conditions need not be identical. Equal entries are not always repeated. Structures can show the parent of a compound that is named as a salt.

In the case of `Cn1cc(-c2ccc3nnc(C(F)(F)c4ccc5ncccc5c4)n3n2)cn1` [Compound (I), 6-{difluoro[6-(1-methyl-1H-pyrazol-4-yl)[1,2,4]triazolo[4,3-b]pyridazin-3-yl]methyl}quinoline], the “Decrease of mean tumor volume” value in the series on U87MG tumors (25 mg/kg p.o. (q.d. day 1, b.i.d. to day 12)) is recorded as 94%; in the series on U87MG tumors (50 mg/kg p.o. (b.i.d. 7 days, 24-hr pause, q.d. to day 12)), 96%; in the series with U87MG tumors (75 mg/kg p.o. (b.i.d. 7 days, 24-hr pause, q.d. to day 12)), 97%. Also, the “Tumor growth inhibition of U87MG tumors” value with U87MG tumors (p.o. 25, 50 and 75 mg/kg, all doses, p<0.01) is “statistically significant”. Moreover, the Tumor regression entry with U87MG tumors (p.o. 25, 50 and 75 mg/kg, all three doses) is listed as “Tumor regression was also observed”. For the same molecule, in the series with S114 tumors, the “S114 tumor regression, mice responding” value is “regressed in all five mice”. For the same molecule, the “Mice with tumors regressed to non-palpable, non-detectable” value in the series with S114 tumors (end of study) is reported as “three of the five mice”. For the same molecule, the Final tumour weights in the series on S114 tumors (individual mice) was 0.017 g (2×) and no tumour (3×). Moreover, at c-Met kinase, the IC50 is about 7.01 nM.
For `Cn1cc(-c2ccc3nnc(C(F)(F)c4ccc5ncccc5c4)n3n2)cn1` [HCl salt], the “Measured pH” value in series [1] (saturated solution in water) is on record as “pH = 1.8”. Also, the thermodynamic solubility at 24 h in series [1] (water, UV spectrometry) came to 380 µg/mL. Besides, the Hygroscopicity result in series [2] was “hygroscopic”. For the same molecule, the Water adsorbed entry in series [2] (dried 1 h at 25° C. under dry nitrogen flow, depending on the atmospheric humidity) is given as “up to 11.4%”. Further, in series [3] (10 mg base eq./kg), the concentration at 0.5 h turned out to be 3090 ± 235 ng/mL, the concentration at 1 h was determined as 4210 ± 685 ng/mL, the concentration at 2 h was 4290 ± 803 ng/mL and the concentration at 4 h amounted to 2710 ± 706 ng/mL. In series [3] (10 mg base eq./kg), the concentration at 7 h worked out at 1940 ± 702 ng/mL and the concentration at 24 h came out at 56.1 ± 16.6 ng/mL. In series [3] (10 mg/kg), the AUC0-inf turned out to be 29900 ± 7260 ng·h/mL, the AUC(0-t) worked out at 29600 ± 7220 ng·h/mL, the Cmax was determined as 4430 ± 683 ng/mL and the Tmax was 1.6 ± 0.5 h. The half-life in series [3] (10 mg/kg) was 3.5 ± 0.3 h. Also, the 50% inhibitory concentration (IC50) on c-Met kinase was about 13.2 nM.

For orientation: IC50 means the midpoint of a concentration-inhibition curve. Usually thermodynamic solubility stands for solubility found after equilibrating the solid with the medium. As a reminder, the AUC(0-t) is exposure summed from dosing to a finite time, without extrapolation to infinity. The term Cmax denotes the peak of the concentration-time curve. As a reminder, the Tmax is the time at which the peak concentration occurs. A word on the half-life: it is the time in which the quantity being followed falls by half.
